According to patent US7183091B2, “Sulfite reductase, the process for producing the same and the use thereof” (Nugen Bioscience (Taiwan) Co., Ltd., priority 2003, dated 2007):
Like-named read-outs stand apart in the source and are kept apart here.

Experiments:
[1] = system: sulfite reductase from Escherichia coli; assay: Effects of metal ions, inhibitors and reducing agents on enzyme activity; assay type: biochemical
Protocol: (§1) […]. To 0.9 mL reaction mixture [0.1 M phosphate buffer (pH 7.7) containing 0.5 mM EDTA, 0.5 mM NaHSO3, 1 μM FMN, and 0.2 mM NADPH], 0.1 mL of reductase was added and incubated at 25° C. The activity was determined according to the initial velocity after the addition of reductase and corrected by the slow oxidation of NADPH in the absence of sulfite. One activity unit was defined as the amount of enzyme which catalyzed the oxidation of 1 μmol NADPH within 1 minute reaction 25° C. under the above condition.

[2] = biological target: T1, sulfite reductase from Saccharomyces cerevisiae (Saccharomyces cerevisiae, UniProt P39692+P47169); assay: as above; assay type: biochemical; settings: for effect of metal ions on catalytic activity: metals 0.5, 1.0, 5.0 and 10.0 mM
T1 construct: Saccharomyces cerevisiae cell was collected by 30 min centrifugation at 4,000×g; made in house; host or cells: endogenous enzyme purified from cultured Saccharomyces cerevisiae cells (not recombinant)
T1 sequence (P47169 1-1442): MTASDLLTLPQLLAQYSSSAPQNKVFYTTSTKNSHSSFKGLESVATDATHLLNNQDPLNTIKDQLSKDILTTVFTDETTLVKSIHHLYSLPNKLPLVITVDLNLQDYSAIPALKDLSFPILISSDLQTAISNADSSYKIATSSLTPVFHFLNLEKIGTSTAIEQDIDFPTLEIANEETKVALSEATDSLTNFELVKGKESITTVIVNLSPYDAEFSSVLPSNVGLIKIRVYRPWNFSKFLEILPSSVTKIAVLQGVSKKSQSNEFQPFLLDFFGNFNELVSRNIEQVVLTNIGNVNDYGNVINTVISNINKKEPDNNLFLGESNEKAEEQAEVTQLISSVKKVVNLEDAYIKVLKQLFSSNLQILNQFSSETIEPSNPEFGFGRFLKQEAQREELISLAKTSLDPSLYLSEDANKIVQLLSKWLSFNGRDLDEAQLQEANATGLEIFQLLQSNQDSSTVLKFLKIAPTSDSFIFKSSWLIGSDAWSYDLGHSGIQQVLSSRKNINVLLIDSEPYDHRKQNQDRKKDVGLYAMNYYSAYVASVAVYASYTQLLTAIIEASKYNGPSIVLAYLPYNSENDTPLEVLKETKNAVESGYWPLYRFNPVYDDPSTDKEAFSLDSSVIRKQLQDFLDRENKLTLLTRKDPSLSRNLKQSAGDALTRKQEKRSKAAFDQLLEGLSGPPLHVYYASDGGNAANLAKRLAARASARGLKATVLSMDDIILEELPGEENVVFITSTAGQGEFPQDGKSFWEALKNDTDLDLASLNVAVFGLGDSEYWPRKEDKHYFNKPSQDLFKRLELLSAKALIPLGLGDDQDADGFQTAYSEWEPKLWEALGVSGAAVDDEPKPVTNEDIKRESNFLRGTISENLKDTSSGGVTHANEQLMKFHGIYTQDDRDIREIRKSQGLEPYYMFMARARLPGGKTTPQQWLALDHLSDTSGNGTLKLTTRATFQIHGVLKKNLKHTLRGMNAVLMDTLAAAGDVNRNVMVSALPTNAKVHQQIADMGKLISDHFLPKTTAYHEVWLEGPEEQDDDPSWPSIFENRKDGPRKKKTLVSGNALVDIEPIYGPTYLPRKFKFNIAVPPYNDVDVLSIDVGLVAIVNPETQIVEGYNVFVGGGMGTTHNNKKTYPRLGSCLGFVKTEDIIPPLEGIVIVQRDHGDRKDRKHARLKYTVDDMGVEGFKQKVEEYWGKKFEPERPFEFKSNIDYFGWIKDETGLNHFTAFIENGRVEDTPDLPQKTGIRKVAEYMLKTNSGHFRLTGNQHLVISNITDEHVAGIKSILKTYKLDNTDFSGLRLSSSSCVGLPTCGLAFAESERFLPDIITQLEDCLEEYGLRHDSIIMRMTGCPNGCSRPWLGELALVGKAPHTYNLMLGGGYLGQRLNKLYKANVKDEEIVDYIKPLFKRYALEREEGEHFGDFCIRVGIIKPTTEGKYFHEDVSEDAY
T1 sequence (P39692 1-1035): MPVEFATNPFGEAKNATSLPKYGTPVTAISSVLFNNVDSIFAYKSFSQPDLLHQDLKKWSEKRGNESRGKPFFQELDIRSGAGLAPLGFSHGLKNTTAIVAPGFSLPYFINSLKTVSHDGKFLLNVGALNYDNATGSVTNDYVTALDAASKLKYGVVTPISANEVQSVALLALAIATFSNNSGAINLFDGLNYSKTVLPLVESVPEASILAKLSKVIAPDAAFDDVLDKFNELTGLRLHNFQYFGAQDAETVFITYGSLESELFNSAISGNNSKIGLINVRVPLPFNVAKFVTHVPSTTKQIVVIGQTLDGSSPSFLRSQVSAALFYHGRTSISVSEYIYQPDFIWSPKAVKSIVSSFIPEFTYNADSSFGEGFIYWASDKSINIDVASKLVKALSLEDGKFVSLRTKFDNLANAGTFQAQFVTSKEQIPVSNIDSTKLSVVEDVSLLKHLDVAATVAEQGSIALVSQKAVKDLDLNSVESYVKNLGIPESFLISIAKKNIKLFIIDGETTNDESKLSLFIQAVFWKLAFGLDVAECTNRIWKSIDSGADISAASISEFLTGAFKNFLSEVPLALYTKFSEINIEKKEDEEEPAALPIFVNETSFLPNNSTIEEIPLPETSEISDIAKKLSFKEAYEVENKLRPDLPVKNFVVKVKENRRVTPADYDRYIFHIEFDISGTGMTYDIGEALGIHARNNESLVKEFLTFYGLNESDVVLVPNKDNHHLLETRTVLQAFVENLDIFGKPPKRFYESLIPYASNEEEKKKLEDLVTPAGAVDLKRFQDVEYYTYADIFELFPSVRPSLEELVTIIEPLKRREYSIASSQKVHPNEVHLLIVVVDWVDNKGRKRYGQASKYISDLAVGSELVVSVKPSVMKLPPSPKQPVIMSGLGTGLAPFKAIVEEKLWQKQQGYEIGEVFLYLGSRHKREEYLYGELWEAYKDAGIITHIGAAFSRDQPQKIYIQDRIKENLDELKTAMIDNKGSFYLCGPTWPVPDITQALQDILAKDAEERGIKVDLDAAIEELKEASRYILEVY
Protocol: as §1

[3] = Determination of sulfite reductase activity (oxidation of NADPH by sulfite, 340 nm); assay type: biochemical
Protocol: The sulfite reductase activity was measured spectrophotometrically at 340 nm under aerobic conditions by following the oxidation of NADPH by sulfite according to the method of determining enzyme activity of Siegel and others (1973). To 0.9 mL reaction mixture [0.1 M phosphate buffer (pH 7.7) containing 0.5 mM EDTA, 0.5 mM NaHSO3, 1 μM FMN, and 0.2 mM NADPH], 0.1 mL of reductase was added and incubated at 25° C. The activity was determined according to the initial velocity after the addition of reductase and corrected by the slow oxidation of NADPH in the absence of sulfite. One activity unit was defined as the amount of enzyme which catalyzed the oxidation of 1 μmol NADPH within 1 minute reaction 25° C. under the above condition.

[4] = Optimal pH value of the sulfite reductase; assay type: biochemical; settings: 25° C., 5 minutes
Protocol: Optimal pH value. To 0.9 mL reaction mixture with various pHs (0.2 M citrated buffer: pH 4.0 to 6.0; 0.2 M phosphate buffer: pH 6.0 to 8.0 and 0.2 M bicarbonate buffer: pH 8.0 to 10,0; all buffers containing 0.5 mM EDTA, 0.5 mM NaHSO3, 1 μM FMN, and 0.2 mM NADPH), 0.1 mL of reductase was added and incubated at 25° C. for 5 minutes. The activity was determined from initial velocity and corrected by the oxidation of NADPH in the absence of sulfite according the method of Siegel and others (1973).

[5] = Optimal temperature of the sulfite reductase; assay type: biochemical; settings: pH 7.7, 5 minutes
Protocol: Optimal temperature. To 0.9 mL reaction mixture [0.1 M phosphate buffer (pH 7.7) containing 0.5 mM EDTA, 0.5 mM NaHSO3, 1 μM FMN, and 0.2 mM NADPH], 0.1 mL of reductase was added and incubated at various temperatures (5, 10, 15, 20, 25, 30, 35, 40, 45, 50, 55 and 60° C.) for 5 minutes. The activity was determined from initial velocity and corrected by the oxidation of NADPH in the absence of sulfite according the method of Siegel and others (1973).

[6] = Stability of low temperature storage of the enzyme solution; assay type: physicochemical
Protocol: The enzyme solution was stored at 4° C. and −20° C., respectively. The residue enzyme activity was determined per constant time interval to test the stability of low-temperature storage.

[7] = metals 0.5, 1.0, 5.0 and 10.0 mM, 25° C., 30 minutes
[8] = inhibitor 1.0 mM, 25° C., 30 minutes

Compound	effect of metal ions on catalytic activity [1, 7]	effect of metal ions on catalytic activity ([2]; 25° C., 30 minutes)	also measured
O[C@H](CS)[C@H](O)CS (racemic) [dithiothreitol]	–	–	effect of reducing agents on enzyme activity [1]: improved the activity; effect of reducing agents on enzyme activity [2]: improved the activity
[Ba+2] [Ba^2+]	moderately	partially	–
[Ca+2] [Ca^2+]	strongly inhibited	did not affect the enzyme activity	–
[Cd+2] [Cd^2+]	moderately	–	–
[Co+2] [Co^2+]	strongly inhibited	partially	–
[Cu+2] [Cu^2+]	strongly inhibited	strongly inhibited	–
[Fe+2] [Fe^2+]	strongly inhibited	partially	–
[Hg+2] [Hg^2+]	strongly inhibited	strongly inhibited	–
O=C(O)CI [IAA, Iodoacetate]	–	–	effect of inhibitors on catalytic activity [1]: partially; effect of inhibitors on catalytic activity [2]: partially
[K+] [K^+]	–	did not affect the enzyme activity	effect of metal ions on catalytic activity [1]: did not affect the enzyme activity
[Mg+2] [Mg^2+]	did not affect the enzyme activity	did not affect the enzyme activity	–
[Mn+2] [Mn^2+]	moderately	partially	–
CCN1C(=O)C=CC1=O [NEM, N-ethylmaleimide]	–	–	effect of inhibitors on catalytic activity [1, 8]: partially; effect of inhibitors on catalytic activity [2, 8]: partially
[Na+] [Na^+]	did not affect the enzyme activity	did not affect the enzyme activity	–
[Ni+2] [Ni^2+]	–	partially	–
O=C(O)c1cc[c]([Hg][Cl])cc1 [PCMB, p-chloromercuribenzoate]	–	–	effect of inhibitors on catalytic activity [1, 8]: completely inhibited; effect of inhibitors on catalytic activity [2, 8]: completely inhibited
O=S(=O)(O)c1cc[c]([Hg][Cl])cc1 [PCMPS, p-chloromercuriphenylsulfonic acid]	–	–	effect of inhibitors on catalytic activity [2, 8]: completely inhibited
O=S(=O)(F)Cc1ccccc1 [PMSF, phenylmethylsulfonyl fluoride]	–	–	effect of inhibitors on catalytic activity [1, 8]: partially; effect of inhibitors on catalytic activity [2, 8]: partially
[Pb+2] [Pb^2+]	–	strongly inhibited	–
[Zn+2] [Zn^2+]	moderately	strongly inhibited	–
N[C@@H](CS)C(=O)O [cysteine]	–	–	effect of reducing agents on enzyme activity [1]: improved the activity; effect of reducing agents on enzyme activity [2]: improved the activity
N[C@@H](CCC(=O)N[C@@H](CS)C(=O)NCC(=O)O)C(=O)O [glutathione]	–	–	effect of reducing agents on enzyme activity [1]: improved the activity; effect of reducing agents on enzyme activity [2]: improved the activity
OCCS [β-mercaptoethanol]	–	–	effect of reducing agents on enzyme activity [1]: improved the activity; effect of reducing agents on enzyme activity [2]: improved the activity
sulfite reductase from Saccharomyces cerevisiae: purified sulfite reductase from Saccharomyces cerevisiae (CCRC 22223), molecular weight 358,000	–	–	specific activity ([3]; Table 2, purification steps of the Saccharomyces cerevisiae enzyme): 1.34 units/mg; specific activity ([3]; purified enzyme, 25° C., pH 7.7): 1.34 units/mg; optimum pH [4]: 7.3; optimum temperature [5]: 25 °C; enzyme activity after storage ([6]; enzyme solution stored for 2 months at −20° C.): nearly not changed; enzyme activity after storage ([6]; enzyme solution stored for 28 days at 4° C.): 77.8%
